# Tested on: Kelly Neuroblastoma cells
# Test: ATPlite Luminescence viability assay, Kelly neuroblastoma cells, 72 h
# Assay type: cell-based
# Conditions: Kelly Neuroblastoma cells, ATPlite, class symbols, read-out: IC50 of inventive bispecific compounds
# Protocol: Kelly Neuroblastoma cells were seeded at 1,000 cells per well in 384 well, white plates and were treated in a dose-dependent manner for 72 h.
row,Structure (SMILES),IC50
1,"Cc1noc(C)c1-c1ccc2nc(-c3ccc(N4CCN(C(=O)CCOCCOCCOCCNC(=O)COc5cccc6c5C(=O)N(C5CCC(=O)NC5=O)C6=O)CC4)cc3)c(NC3CCCCC3)n2c1 (stereo not shown) [Compound 4, N-(2-(2-(2-(3-(4-(4-(3-(cyclohexylamino)-6-(3,5-dimethylisoxazol-4-yl)imidazo[1,2-a]pyridin-2-yl)phenyl)piperazin-1-yl)-3-oxopropoxy)ethoxy)ethoxy)ethyl)-2-((2-(2,6-dioxopiperidin-3-yl)-1,3-dioxoisoindolin-4-yl)oxy)acetamide]",> 10 µM
2,"Cc1noc(C)c1-c1ccn2c(NC3CCCCC3)c(CCc3ccc(NC(=O)c4ccc(CNc5cccc6c5C(=O)N(C5CCC(=O)NC5=O)C6=O)cc4)cc3)nc2c1 (stereo not shown) [Compound 18, N-(4-(2-(3-(cyclohexylamino)-7-(3,5-dimethylisoxazol-4-yl)imidazo[1,2-a]pyridin-2-yl)ethyl)phenyl)-4-(((2-(2,6-dioxopiperidin-3-yl)-1,3-dioxoisoindolin-4-yl)amino)methyl)benzamide]",> 10 µM
3,"COc1ccc(CCc2nc3cc(-c4c(C)noc4C)ccc3n2C[C@H](C)N2CCN(C(=O)CCCCCNc3ccc4c(c3)C(=O)N(C3CCC(=O)NC3=O)C4=O)CC2)cc1Cl (stereo partly drawn) [Compound 21, 5-((6-(4-((S)-1-(2-(3-chloro-4-methoxyphenethyl)-5-(3,5-dimethylisoxazol-4-yl)-1H-benzo[d]imidazol-1-yl)propan-2-yl)piperazin-1-yl)-6-oxohexyl)amino)-2-(2,6-dioxopiperidin-3-yl)isoindoline-1,3-dione]",> 10 µM
4,"Cc1noc(C)c1-c1ccn2c(NC3CCCCC3)c(CCc3ccc(NC(=O)CCCCCNc4ccc5c(c4)C(=O)N(C4CCC(=O)NC4=O)C5=O)cc3)nc2c1 (stereo not shown) [Compound 14, N-(4-(2-(3-(cyclohexylamino)-7-(3,5-dimethylisoxazol-4-yl)imidazo[1,2-a]pyridin-2-yl)ethyl)phenyl)-6-((2-(2,6-dioxopiperidin-3-yl)-1,3-dioxoisoindolin-5-yl)amino)hexanamide]",1 to 10 µM
5,"COc1ccc(CCc2nc3cc(-c4c(C)noc4C)ccc3n2C[C@H](C)N2CCN(C(=O)CCOCCOCCOCCNc3ccc4c(c3)C(=O)N(C3CCC(=O)NC3=O)C4=O)CC2)cc1Cl (stereo partly drawn) [Compound 19, 5-((2-(2-(2-(3-(4-((S)-1-(2-(3-chloro-4-methoxyphenethyl)-5-(3,5-dimethylisoxazol-4-yl)-1H-benzo[d]imidazol-1-yl)propan-2-yl)piperazin-1-yl)-3-oxopropoxy)ethoxy)ethoxy)ethyl)amino)-2-(2,6-dioxopiperidin-3-yl)isoindoline-1,3-dione]",> 10 µM
6,"Cc1noc(C)c1-c1ccn2c(NC3CCCCC3)c(CCc3ccc(NC(=O)CCCCCCCNc4cccc5c4C(=O)N(C4CCC(=O)NC4=O)C5=O)cc3)nc2c1 (stereo not shown) [Compound 13, N-(4-(2-(3-(cyclohexylamino)-7-(3,5-dimethylisoxazol-4-yl)imidazo[1,2-a]pyridin-2-yl)ethyl)phenyl)-8-((2-(2,6-dioxopiperidin-3-yl)-1,3-dioxoisoindolin-4-yl)amino)octanamide]",> 10 µM
7,"Cc1noc(C)c1-c1ccc2c(c1)nc([C@@H]1CCCC(=O)N1c1ccc(F)c(F)c1)n2[C@H]1CC[C@H](NC(=O)CCCCCNc2cccc3c2C(=O)N(C2CCC(=O)NC2=O)C3=O)CC1 (stereo partly drawn) [Compound 30, N-((1S,4r)-4-(2-((S)-1-(3,4-difluorophenyl)-6-oxopiperidin-2-yl)-5-(3,5-dimethylisoxazol-4-yl)-1H-benzo[d]imidazol-1-yl)cyclohexyl)-6-((2-(2,6-dioxopiperidin-3-yl)-1,3-dioxoisoindolin-4-yl)amino)hexanamide]",0.1 to 1 µM
8,"Cc1noc(C)c1-c1ccn2c(NCc3ccccc3)c(-c3ccc(N4CCN(C(=O)CCOCCOCCOCCOCCOCCOCCNc5cccc6c5C(=O)N(C5CCC(=O)NC5=O)C6=O)CC4)cc3)nc2c1 (stereo not shown) [Compound 5, 4-((21-(4-(4-(3-(benzylamino)-7-(3,5-dimethylisoxazol-4-yl)imidazo[1,2-a]pyridin-2-yl)phenyl)piperazin-1-yl)-21-oxo-3,6,9,12,15,18-hexaoxahenicosyl)amino)-2-(2,6-dioxopiperidin-3-yl)isoindoline-1,3-dione]",> 10 µM
9,"Cc1noc(C)c1-c1ccc2c(c1)nc([C@@H]1CCCC(=O)N1c1ccc(F)c(F)c1)n2[C@H]1CC[C@H](NC(=O)CCCCCCCCCNc2cccc3c2C(=O)N(C2CCC(=O)NC2=O)C3=O)CC1 (stereo partly drawn) [Compound 29, N-((1S,4r)-4-(2-((S)-1-(3,4-difluorophenyl)-6-oxopiperidin-2-yl)-5-(3,5-dimethylisoxazol-4-yl)-1H-benzo[d]imidazol-1-yl)cyclohexyl)-10-((2-(2,6-dioxopiperidin-3-yl)-1,3-dioxoisoindolin-4-yl)amino)decanamide]",< 0.1 µM
10,"Cc1noc(C)c1-c1ccn2c(NC3CCCCC3)c(CCc3ccc(NC(=O)CCCCCCCCCCCNC(=O)COc4cccc5c4C(=O)N(C4CCC(=O)NC4=O)C5=O)cc3)nc2c1 (stereo not shown) [Compound 10, N-(4-(2-(3-(cyclohexylamino)-7-(3,5-dimethylisoxazol-4-yl)imidazo[1,2-a]pyridin-2-yl)ethyl)phenyl)-12-(2-((2-(2,6-dioxopiperidin-3-yl)-1,3-dioxoisoindolin-4-yl)oxy)acetamido)dodecanamide]",> 10 µM
11,"Cc1noc(C)c1-c1ccc2c(c1)nc(CCc1ccc(NC(=O)CCCCCCCNc3cccc4c3C(=O)N(C3CCC(=O)NC3=O)C4=O)cc1)n2CC(C)N1CCOCC1 (stereo not shown) [Compound 26, N-(4-(2-(5-(3,5-dimethylisoxazol-4-yl)-1-(2-morpholinopropyl)-1H-benzo[d]imidazol-2-yl)ethyl)phenyl)-8-((2-(2,6-dioxopiperidin-3-yl)-1,3-dioxoisoindolin-4-yl)amino)octanamide]",> 10 µM
12,"Cc1noc(C)c1-c1ccn2c(NC3CCCCC3)c(CCc3ccc(NC(=O)CCCCCCCCCCCNc4cccc5c4C(=O)N(C4CCC(=O)NC4=O)C5=O)cc3)nc2c1 (stereo not shown) [Compound 9, N-(4-(2-(3-(cyclohexylamino)-7-(3,5-dimethylisoxazol-4-yl)imidazo[1,2-a]pyridin-2-yl)ethyl)phenyl)-12-((2-(2,6-dioxopiperidin-3-yl)-1,3-dioxoisoindolin-4-yl)amino)dodecanamide]",> 10 µM
13,"COc1ccc(CCc2nc3cc(-c4c(C)noc4C)ccc3n2C[C@H](C)N2CCN(C(=O)CCCCCCCCCNc3ccc4c(c3)C(=O)N(C3CCC(=O)NC3=O)C4=O)CC2)cc1Cl (stereo partly drawn) [Compound 20, 5-((10-(4-((S)-1-(2-(3-chloro-4-methoxyphenethyl)-5-(3,5-dimethylisoxazol-4-yl)-1H-benzo[d]imidazol-1-yl)propan-2-yl)piperazin-1-yl)-10-oxodecyl)amino)-2-(2,6-dioxopiperidin-3-yl)isoindoline-1,3-dione]",> 10 µM

# Other lines, results leading:
row,IC50,Structure (SMILES)
1,1 to 10 µM,"Cc1noc(C)c1-c1ccn2c(NC3CCCCC3)c(CCc3ccc(NC(=O)C4CCC(Nc5cccc6c5C(=O)N(C5CCC(=O)NC5=O)C6=O)CC4)cc3)nc2c1 (stereo not shown) [Compound 17, N-(4-(2-(3-(cyclohexylamino)-7-(3,5-dimethylisoxazol-4-yl)imidazo[1,2-a]pyridin-2-yl)ethyl)phenyl)-4-((2-(2,6-dioxopiperidin-3-yl)-1,3-dioxoisoindolin-4-yl)amino)cyclohexane-1-carboxamide]"
2,1 to 10 µM,"Cc1noc(C)c1-c1ccn2c(NC3CCCCC3)c(CCc3ccc(NC(=O)CCOCCOCCOCCOCCOCCOCCNc4cccc5c4C(=O)N(C4CCC(=O)NC4=O)C5=O)cc3)nc2c1 (stereo not shown) [Compound 16, N-(4-(2-(3-(cyclohexylamino)-7-(3,5-dimethylisoxazol-4-yl)imidazo[1,2-a]pyridin-2-yl)ethyl)phenyl)-1-((2-(2,6-dioxopiperidin-3-yl)-1,3-dioxoisoindolin-4-yl)amino)-3,6,9,12,15,18-hexaoxahenicosan-21-amide]"
3,> 10 µM,"Cc1noc(C)c1-c1ccc2c(c1)nc(CCc1ccc(NC(=O)CCOCCOCCOCCNc3cccc4c3C(=O)N(C3CCC(=O)NC3=O)C4=O)cc1)n2CCN1CCOCC1 (stereo not shown) [Compound 22, N-(4-(2-(5-(3,5-dimethylisoxazol-4-yl)-1-(2-morpholinoethyl)-1H-benzo[d]imidazol-2-yl)ethyl)phenyl)-3-(2-(2-(2-((2-(2,6-dioxopiperidin-3-yl)-1,3-dioxoisoindolin-4-yl)amino)ethoxy)ethoxy)ethoxy)propanamide]"
4,> 10 µM,"Cc1noc(C)c1-c1ccc2c(c1)nc(CCc1ccc(NC(=O)CCCCCCCCCCCNC(=O)COc3cccc4c3C(=O)N(C3CCC(=O)NC3=O)C4=O)cc1)n2CCN1CCOCC1 (stereo not shown) [Compound 24, N-(4-(2-(5-(3,5-dimethylisoxazol-4-yl)-1-(2-morpholinoethyl)-1H-benzo[d]imidazol-2-yl)ethyl)phenyl)-12-(2-((2-(2,6-dioxopiperidin-3-yl)-1,3-dioxoisoindolin-4-yl)oxy)acetamido)dodecanamide]"
5,> 10 µM,"Cc1noc(C)c1-c1ccc2c(c1)nc(CCc1ccc(NC(=O)CCOCCOCCOCCNc3cccc4c3C(=O)N(C3CCC(=O)NC3=O)C4=O)cc1)n2CC(C)N1CCOCC1 (stereo not shown) [Compound 27, N-(4-(2-(5-(3,5-dimethylisoxazol-4-yl)-1-(2-morpholinopropyl)-1H-benzo[d]imidazol-2-yl)ethyl)phenyl)-3-(2-(2-(2-((2-(2,6-dioxopiperidin-3-yl)-1,3-dioxoisoindolin-4-yl)amino)ethoxy)ethoxy)ethoxy)propanamide]"
6,> 10 µM,"Cc1ncsc1-c1ccc(CNC(=O)[C@H]2C[C@H](O)CN2C(=O)[C@H](NC(=O)COCCOCCOCCNC(=O)CCC(=O)Nc2ccc(CCc3nc4cc(-c5c(C)noc5C)ccn4c3NC3CCCCC3)cc2)C(C)(C)C)cc1 [Compound 15, N1-(4-(2-(3-(cyclohexylamino)-7-(3,5-dimethylisoxazol-4-yl)imidazo[1,2-a]pyridin-2-yl)ethyl)phenyl)-N4-((R)-13-((2R,4S)-4-hydroxy-2-((4-(4-methylthiazol-5-yl)benzyl)carbamoyl)pyrrolidine-1-carbonyl)-14,14-dimethyl-11-oxo-3,6,9-trioxa-12-azapentadecyl)succinamide]"

# From patent US12496348B2, “Small molecule target bromo/acetyl proteins and uses thereof” (DANA-FARBER CANCER INSTITUTE, INC., priority 2019, dated 2025)
